Data: patent publication US20240390369A1, “METHODS FOR DETERMINING RESPONSIVENESS TO TYK2 INHIBITORS” (Bristol-Myers Squibb Company, priority 2021, published 2024)

Tested on: patients with psoriatic arthritis
Assay: Phase 2 trial in psoriatic arthritis: ACR20 response at week 16
Assay type: in vivo, human
Settings: for Odds Ratio for ACR20 response / Interaction Term for ACR20 response (ratio of odds ratios): week 16
Description: In a double-blind Phase 2 trial, 203 patients with psoriatic arthritis were randomized into three groups: deucravacitinib 6 mg once daily (N=70), deucravacitinib 12 mg once daily (N=67), or placebo (N=66). All subjects had active psoriatic arthritis according to the Classification Criteria for Psoriatic Arthritis (CASPAR); for active disease, these criteria required ≥3 tender joint count, ≥3 swollen joint count, and a C-reactive protein level above 3 mg/L. Other inclusion criteria included the following: presence of at least one plaque psoriasis lesion, and prior treatment failure with a non-biologic disease modifying anti-rheumatic drug, a non-steroidal anti-inflammatory drug, or a steroid. With respect to treatment history, approximately 70% of subjects had not received prior treatment with a biologic and were biologic naïve, while up to 30% of subjects had failed or had been intolerant to one TNF-inhibitor (TNF=Tumor necrosis factor, also known as TNFα). Randomization was stratified by prior TNF-inhibitor use (experienced/naïve) and body weight (<90 kg and ≥90 kg).
Clinical measures included the Psoriasis […] (PASI) score for skin psoriasis, American College of Rheumatology 20 (ACR20) response, Psoriatic Arthritis Disease Activity Score (PASDAS), Health Assessment Questionnaire-Disability Index (HAQ-DI), and Disease Activity Score 28 CRP (DAS28). To evaluate the predictive value of different protein measurements for the clinical response to deucravacitinib, baseline protein concentrations for responders and non-responders, as defined by ACR20 or PASI75 at week 16, were compared for each arm (placebo, 6 mg deucravacitinib once-daily, and 12 mg deucravacitinib once-daily).
Boxplots for baseline protein level by response were generated with a horizontal line indicating the median protein level at baseline. For each treatment arm, a two-sample t-test was performed to test whether mean baseline serum protein level was different in responders versus non-responders. A Wilcoxon rank sum test (Mann-Whitney U test) was also performed to evaluate the difference in median serum protein level between responders and non-responders. Further, barplots of ACR20 and PASI75 response rate at week 16 for each treatment arm were generated for all subjects (protein level high and protein level low subjects, dichotomized according to median baseline level). Line plots of ACR20 and PASI75 response rate over time for each treatment arm were generated for protein level high and protein level low groups. Logistic regression models were also fit to evaluate associations between baseline protein levels and clinical outcome.
For certain analyses described herein, patients were dichotomized by median values (e.g., of the proteins listed above or other measures) into “high” and “low” groups, such that the high group had values above the median and the low group had values less than or equal to the median.
In addition, logistic regression models were fit for response measures ACR20 and PASI75, to generate the odds ratio of each of the deucravacitinib treatment arms versus placebo, in BD2-high and BD2-low groups. The following logistic regression models were used: • For ACR20 response status: ACR20 (Y/N)=treatment arm+BD2 group+treatment arm*BD2 group+TNF-inhibitor use+baseline weight (continuous). • For PASI75 response status: PASI75 (Y/N)=treatment arm+BD2 group+treatment arm*BD2 group+TNF-inhibitor use+baseline weight (continuous). […] FIGS. 26-31 are forest plots summarizing the logistic regression results of these models (for BD2 and other biomarkers described herein); each “N,” for “Placebo” and “Deucrava,” represents the number of responders in that group. […]

Question: Which results are given for `[2H]C([2H])([2H])NC(=O)c1nnc(NC(=O)C2CC2)cc1Nc1cccc(-c2ncn(C)n2)c1OC` [deucravacitinib, 6-(cyclopropanecarboxamido)-4-((2-methoxy-3-(1-methyl-1H-1,2,4-triazol-3-yl)phenyl)amino)-N-(methyl-d3)pyridazine-3-carboxamide]?
Answer: Odds Ratio for ACR20 response (BD2 high (baseline above median 9,265 ng/L), 6 mg QD vs placebo): 4.54; Odds Ratio for ACR20 response (BD2 high (baseline above median 9,265 ng/L), 12 mg QD vs placebo): 7.33; Odds Ratio for ACR20 response (BD2 high, treatment arms combined vs placebo): 5.645; Odds Ratio for ACR20 response (BD2 low, 6 mg QD vs placebo): 1.44; Odds Ratio for ACR20 response (BD2 low, 12 mg QD vs placebo): 2.15; Odds Ratio for ACR20 response (BD2 low, treatment arms combined vs placebo): 1.767; Odds Ratio, ACR20 response status (CRP high, 6 mg QD vs placebo): 2.167; Odds Ratio, ACR20 response status (CRP high, 12 mg QD vs placebo): 5.140; Odds Ratio, ACR20 response status (CRP high, treatment arms combined vs placebo): 3.215; Odds Ratio, ACR20 response status (CRP low, 6 mg QD vs placebo): 2.756; Odds Ratio, ACR20 response status (CRP low, 12 mg QD vs placebo): 2.676; Odds Ratio, ACR20 response status (CRP low, treatment arms combined vs placebo): 2.715; Odds Ratio, ACR20 response status (CRP-high, 6 mg QD vs placebo, adjusted for baseline DAS28): 2.168; Odds Ratio, ACR20 response status (CRP-high, 12 mg QD vs placebo, adjusted for baseline DAS28): 5.154; Odds Ratio, ACR20 response status (CRP-low, 6 mg QD vs placebo, adjusted for baseline DAS28): 2.752; Odds Ratio, ACR20 response status (CRP-low, 12 mg QD vs placebo, adjusted for baseline DAS28): 2.670; Odds Ratio for ACR20 response (IL-17A high (baseline above median 0.575 ng/L), 6 mg QD vs placebo): 4.30; Odds Ratio for ACR20 response (IL-17A high (baseline above median 0.575 ng/L), 12 mg QD vs placebo): 5.95; ACR20 response rate at week 16 (IL-17A high group, 6 mg QD and 12 mg QD vs placebo (FIG. 22)): higher in both 6 mg QD and 12 mg QD treatment arms compared to placebo in the IL-17-high group; Odds Ratio for ACR20 response (IL-17A high, treatment arms combined vs placebo): 4.990; Odds Ratio for ACR20 response (IL-17A low, 6 mg QD vs placebo): 1.39; Odds Ratio for ACR20 response (IL-17A low, 12 mg QD vs placebo): 2.14; Odds Ratio for ACR20 response (IL-17A low, treatment arms combined vs placebo): 1.723; ACR20 response rate at week 16 (IL-19-high versus IL-19-low group (FIG. 15)): a much more pronounced treatment effect (indicating a dose response effect of deucravacitinib) was observed in the IL-19-high group than in the IL-19-low group; Odds Ratio for ACR20 response (IL-19 high (baseline above median 36 ng/L), 6 mg QD vs placebo): 4.68; Odds Ratio for ACR20 response (IL-19 high (baseline above median 36 ng/L), 12 mg QD vs placebo): 11.44; Odds Ratio for ACR20 response (IL-19 high, treatment arms combined vs placebo): 6.679; Odds Ratio for ACR20 response (IL-19 low, 6 mg QD vs placebo): 1.41; Odds Ratio for ACR20 response (IL-19 low, 12 mg QD vs placebo): 1.56; Odds Ratio for ACR20 response (IL-19 low, treatment arms combined vs placebo): 1.487; Interaction Term for ACR20 response (ratio of odds ratios) (adjusted for baseline DAS28, 6 mg QD vs placebo: BD2-high versus BD2-low): 3.06; Interaction Term for ACR20 response (ratio of odds ratios) (adjusted for baseline DAS28, 6 mg QD vs placebo: IL-17A-high versus IL-17A-low): 3.08; Interaction Term for ACR20 response (ratio of odds ratios) (adjusted for baseline DAS28, 6 mg QD vs placebo: IL-19-high versus IL-19-low): 3.32; Interaction Term for ACR20 response (ratio of odds ratios) (adjusted for baseline DAS28, 12 mg QD vs placebo: BD2-high versus BD2-low): 3.42; Interaction Term for ACR20 response (ratio of odds ratios) (adjusted for baseline DAS28, 12 mg QD vs placebo: IL-17A-high versus IL-17A-low): 2.75; Odds Ratio for ACR20 response (adjusted for baseline DAS28, All patients, 12 mg QD vs placebo): 3.62; Odds Ratio for ACR20 response (adjusted for baseline DAS28, BD2-high, 6 mg QD vs placebo): 4.42; Odds Ratio for ACR20 response (adjusted for baseline DAS28, BD2-low, 6 mg QD vs placebo): 1.44; Odds Ratio for ACR20 response (adjusted for baseline DAS28, BD2-low, 12 mg QD vs placebo): 2.14; Odds Ratio for ACR20 response (adjusted for baseline DAS28, IL-17A-high, 6 mg QD vs placebo): 4.27; Odds Ratio for ACR20 response (adjusted for baseline DAS28, IL-17A-high, 12 mg QD vs placebo): 5.92; Odds Ratio for ACR20 response (adjusted for baseline DAS28, IL-17A-low, 6 mg QD vs placebo): 1.39; Odds Ratio for ACR20 response (adjusted for baseline DAS28, IL-19-high, 6 mg QD vs placebo): 4.66; Odds Ratio for ACR20 response (adjusted for baseline DAS28, IL-19-high, 12 mg QD vs placebo): 11.47; Odds Ratio for ACR20 response (adjusted for baseline DAS28, IL-19-low, 6 mg QD vs placebo): 1.40; Odds Ratio for ACR20 response (adjusted for baseline DAS28, IL-19-low, 12 mg QD vs placebo): 1.56; Interaction Term for ACR20 response (ratio of odds ratios) (treatment arms combined vs placebo: BD2 high versus BD2 low): 3.195; Interaction Term: treatment arm*CRP group, ACR20 (treatment arms combined vs placebo: CRP high versus CRP low): 1.184; Interaction Term for ACR20 response (ratio of odds ratios) (treatment arms combined vs placebo: IL-17A high versus IL-17A low): 2.886; Interaction Term for ACR20 response (ratio of odds ratios) (treatment arms combined vs placebo: IL-19 high versus IL-19 low): 4.491
